According to patent US20260125375A1 (Pfizer Inc., priority 2022, published 2026):
Like-named read-outs stand apart in the source and are kept apart here.

Key:
C-CBL (46-435) = target: T1, C-CBL (46-435) (Homo sapiens, UniProt P22681); experiment: Surface Plasmon Resonance (SPR) assay, binding affinity and kinetics, C-CBL; details: SPR at 10° C., biotinylated C-CBL (46-435) on streptavidin chip; geometric mean; read-out: C-CBL SPR Kd (nM) GMean
T1 construct: N-terminal biotinylated WT CBL-B (36-427) and C-CBL (46-435) were captured on a streptavidin (SA) coated sensor chip
T1 sequence (P22681 46-435): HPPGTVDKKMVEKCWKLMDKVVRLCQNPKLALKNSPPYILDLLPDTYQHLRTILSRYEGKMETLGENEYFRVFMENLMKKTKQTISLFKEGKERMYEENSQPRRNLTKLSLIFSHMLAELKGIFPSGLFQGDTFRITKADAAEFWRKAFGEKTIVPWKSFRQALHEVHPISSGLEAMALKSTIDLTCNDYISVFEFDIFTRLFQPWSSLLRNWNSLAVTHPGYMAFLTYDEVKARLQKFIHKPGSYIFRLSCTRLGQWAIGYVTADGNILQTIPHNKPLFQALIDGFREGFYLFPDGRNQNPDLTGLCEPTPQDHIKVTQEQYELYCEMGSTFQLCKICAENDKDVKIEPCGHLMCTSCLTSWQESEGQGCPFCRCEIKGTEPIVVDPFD
Summary of the method: (§1)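 Biotinylated WT CBL-B (36-427) or C-CBL (46-435) captured on streptavidin chip (~5000–6000 RU); binding at 10° C in HEPES buffer pH 7.2 with 2% DMSO. Multi-cycle: 2-fold, 10-point series from 10 or 100 μM, 90 s association. Single-cycle: 3-fold, 6-point, 0.001–1 μM, 120 s association, >5400 s dissociation.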

WT CBL-B (36-427) = target: T2, WT CBL-B (36-427) (Homo sapiens, UniProt Q13191); experiment: Surface Plasmon Resonance (SPR) assay, binding affinity and kinetics, CBL-B; details: SPR at 10° C., biotinylated WT CBL-B (36-427) on streptavidin chip; geometric mean; read-out: CBL-B SPR Kd (nM) GMean
T2 construct: N-terminal biotinylated WT CBL-B (36-427) and C-CBL (46-435) were captured on a streptavidin (SA) coated sensor chip
Summary of the method: as §1

CBL-B = target: T3, CBL-B (Homo sapiens, UniProt Q13191); experiment: Jurkat HiBit-IL2 assay (c-CBL KO), reporter cell line expressing CBL-B only; type: cell-based; details: geometric mean, read-out: C-CBL KO EC50 (nM) GMean
T3 construct: endogenous in cells; host or cells: Jurkat HiBit-IL2 reporter cells, C-CBL knocked out by CRISPR
Summary of the method: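 CRISPR knockout Jurkat HiBit-IL2 reporter cells (20,000/well) were preincubated 1 h with compounds (0.1% DMSO), then stimulated 4 h at 37 °C with anti-CD3 (1 μg/ml) and anti-CD28 (2 μg/ml) final. IL-2 was read by HiBiT lytic luminescence, normalized as fold over antibody-only baseline; EC50 reported as geometric mean.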

[1] = C-CBL KO (expressing CBL-B only), Table 16b (further repetition)
[2] = c-CBL KO (CBL-B only), anti-CD3/anti-CD28 stimulation 4 hours, Table 16a

T2 sequence (Q13191 36-427): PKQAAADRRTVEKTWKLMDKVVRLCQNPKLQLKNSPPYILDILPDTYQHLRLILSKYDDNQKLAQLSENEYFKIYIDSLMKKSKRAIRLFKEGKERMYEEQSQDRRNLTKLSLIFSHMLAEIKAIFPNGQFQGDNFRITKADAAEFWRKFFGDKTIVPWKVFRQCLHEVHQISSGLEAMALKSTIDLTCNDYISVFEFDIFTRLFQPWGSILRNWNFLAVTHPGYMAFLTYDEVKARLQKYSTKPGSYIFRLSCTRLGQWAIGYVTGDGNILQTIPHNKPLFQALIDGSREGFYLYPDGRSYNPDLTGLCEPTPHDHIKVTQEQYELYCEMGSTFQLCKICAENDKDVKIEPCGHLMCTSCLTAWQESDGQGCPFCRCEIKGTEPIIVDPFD
T3 sequence (Q13191 whole entry): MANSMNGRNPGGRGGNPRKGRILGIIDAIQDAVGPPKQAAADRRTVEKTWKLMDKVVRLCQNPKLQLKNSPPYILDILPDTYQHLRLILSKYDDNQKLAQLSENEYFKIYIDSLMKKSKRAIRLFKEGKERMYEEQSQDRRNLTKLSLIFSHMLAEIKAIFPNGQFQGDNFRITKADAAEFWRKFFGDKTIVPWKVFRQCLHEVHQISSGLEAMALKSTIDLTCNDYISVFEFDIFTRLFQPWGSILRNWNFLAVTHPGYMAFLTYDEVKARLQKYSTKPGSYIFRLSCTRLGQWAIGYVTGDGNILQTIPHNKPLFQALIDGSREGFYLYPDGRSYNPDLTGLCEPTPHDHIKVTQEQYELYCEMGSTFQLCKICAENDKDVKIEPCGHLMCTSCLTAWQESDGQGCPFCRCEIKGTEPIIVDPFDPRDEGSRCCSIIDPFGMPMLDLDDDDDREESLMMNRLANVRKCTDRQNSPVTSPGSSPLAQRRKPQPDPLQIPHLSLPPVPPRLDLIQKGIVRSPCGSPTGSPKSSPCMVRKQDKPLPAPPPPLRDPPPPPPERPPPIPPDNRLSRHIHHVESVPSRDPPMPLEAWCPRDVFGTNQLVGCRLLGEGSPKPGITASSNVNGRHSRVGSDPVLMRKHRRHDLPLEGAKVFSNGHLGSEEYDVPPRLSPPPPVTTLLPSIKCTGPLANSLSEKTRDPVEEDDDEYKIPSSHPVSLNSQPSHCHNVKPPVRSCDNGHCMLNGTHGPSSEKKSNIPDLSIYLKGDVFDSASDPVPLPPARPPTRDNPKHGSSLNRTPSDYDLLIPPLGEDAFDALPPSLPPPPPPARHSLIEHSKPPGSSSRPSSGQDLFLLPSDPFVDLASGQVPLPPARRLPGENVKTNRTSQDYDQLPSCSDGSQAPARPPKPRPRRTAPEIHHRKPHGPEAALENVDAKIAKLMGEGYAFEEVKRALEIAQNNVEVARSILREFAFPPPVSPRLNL

Compound | Kd (C-CBL (46-435)) | Kd (WT CBL-B (36-427)) | EC50 (CBL-B; [1]) | EC50 (CBL-B; [2])
CC(NC1CCCC1)c1nc(C(F)(F)F)cc2c(-c3cccc([C@H](c4nncn4C)C4CCC4)c3)n[nH]c12 (stereo partly drawn) [Example C14, N-{(1ξ)-1-[3-{3-[(R)-cyclobutyl(4-methyl-4H-1,2,4-triazol-3-yl)methyl]phenyl}-5-(trifluoromethyl)-1H-pyrazolo[3,4-c]cyclopen-7-yl]ethyl}cyclopentanamine] | 4.1 nM | 1.4 nM | 5 nM | 4 nM
C[C@H](N[C@@H]1CCC(F)(F)C1)c1nc(C(F)(F)F)cc2c(-c3cccc(C4(Cc5nncn5C)COC4)c3)n[nH]c12 (single isomer, unassigned) [Example C17] | 28.3 nM | 1.8 nM | – | 33 nM
CC(C)NC(C)c1nc(C(F)(F)F)cc2c(-c3cccc([C@H](c4nncn4C)C4CCC4)c3)n[nH]c12 (single isomer, unassigned) [Example C35] | 54 nM | 2.8 nM | – | 15 nM
C[C@H](N[C@H]1CCOC1)c1nc(C(F)(F)F)cc2c(-c3cccc([C@H](c4nncn4C)C4CCC4)c3)n[nH]c12 (single isomer, unassigned) [Example C2] | 38.8 nM | 2.5 nM | – | 54 nM
C[C@H](c1nc(C(F)(F)F)cc2c(-c3cccc(C4(Cc5nncn5C)COC4)c3)n[nH]c12)N1C[C@@H](F)[C@H](F)C1 (single isomer, unassigned) [Example C26] | 183 nM | 13.2 nM | – | 172 nM
Cn1cnnc1[C@@H](c1cccc(-c2n[nH]c3c(CN[C@@H]4CCC[C@@H]4O)nc(C(F)(F)F)cc23)c1)C1CCC1 [Example C1, (1S,2R)-2-({[3-{3-[(R)-cyclobutyl(4-methyl-4H-1,2,4-triazol-3-yl)methyl]phenyl}-5-(trifluoromethyl)-1H-pyrazolo[3,4-c]pyridin-7-yl]methyl}amino)cyclopentan-1-ol] | 7.6 nM | 1.2 nM | 116 nM | 25 nM
C[C@H](N[C@H]1CCC(F)(F)C1)c1nc(C(F)(F)F)cc2c(-c3cccc([C@H](c4nncn4C)C4CCC4)c3)n[nH]c12 [Example C8] | 5 nM | 2.2 nM | – | 6 nM
Cn1cnnc1[C@@H](c1cccc(-c2n[nH]c3c(CN[C@H]4CCC(F)(F)C4)nc(C(F)(F)F)cc23)c1)C1CCC1 (single isomer, unassigned) [Example G1] | 60.8 nM | 8 nM | – | 70 nM
C[C@H]1CCCN(Cc2nc(C(F)(F)F)cc3c(-c4cccc(C5(Cc6nncn6C)COC5)c4)n[nH]c23)C1 [Example C30, 7-{[(3S)-3-methylpiperidin-1-yl]methyl}-3-(3-{3-[(4-methyl-4H-1,2,4-triazol-3-yl)methyl]oxetan-3-yl}phenyl)-5-(trifluoromethyl)-1H-pyrazolo[3,4-c]pyridine] | 35.9 nM | 3 nM | – | 32 nM
C[C@H](NC1CC(F)(F)C1)c1nc(C(F)(F)F)cc2c(-c3cccc([C@H](c4nncn4C)C4CCC4)c3)n[nH]c12 (single isomer, unassigned) [Example D90] | 77.4 nM | 6.5 nM | 73 nM | –
CC(c1nc(C(F)(F)F)cc2c(-c3cccc(C4(Cc5nncn5C)COC4)c3)n[nH]c12)N1CCCCC1 (single isomer, unassigned) [Example C21, 3-(3-{3-[(4-methyl-4H-1,2,4-triazol-3-yl)methyl]oxetan-3-yl}phenyl)-7-[(1ξ)-1-(piperidin-1-yl)ethyl]-5-(trifluoromethyl)-1H-pyrazolo[3,4-c]pyridine] | 108 nM | 13.7 nM | – | 152 nM
C[C@@H](NC1CCC1)c1nc(C(F)(F)F)cc2c(-c3cccc(C4(Cc5nncn5C)COC4)c3)n[nH]c12 [Example C16] | 83.4 nM | 2 nM | – | 75 nM
Cn1cnnc1CC1(c2cccc(-c3n[nH]c4c(CN5CCCCC5)nc(C(F)(F)F)cc34)c2)COC1 [Example C33, 3-(3-{3-[(4-methyl-4H-1,2,4-triazol-3-yl)methyl]oxetan-3-yl}phenyl)-7-[(piperidin-1-yl)methyl]-5-(trifluoromethyl)-1H-pyrazolo[3,4-c]pyridine] | 107 nM | 6.8 nM | – | 116 nM
Cn1cnnc1[C@@H](c1cccc(-c2n[nH]c3c(CN[C@H]4CCOC4)nc(C(F)(F)F)cc23)c1)C1CCC1 [Example D1, (3S)—N-{[3-{3-[(R)-cyclobutyl(4-methyl-4H-1,2,4-triazol-3-yl)methyl]phenyl}-5-(trifluoromethyl)-1H-pyrazolo[3,4-c]pyridin-7-yl]methyl}oxolan-3-amine] | 208 nM | 3.7 nM | – | 276 nM
C[C@H](N[C@@H]1CCC[C@@H]1O)c1nc(C(F)(F)F)cc2c(-c3cccc([C@H](c4nncn4C)C4CCC4)c3)n[nH]c12 (single isomer, unassigned) [Example D15] | 6.2 nM | 2.5 nM | 4 nM | 3 nM
C[C@@H]1CCCN([C@H](C)c2nc(C(F)(F)F)cc3c(-c4cccc(C5(Cc6nncn6C)COC5)c4)n[nH]c23)C1 (single isomer, unassigned) [Example D14] | 140 nM | 11.1 nM | – | 354 nM
C[C@@H](c1nc(C(F)(F)F)cc2c(-c3cccc(C4(Cc5nncn5C)COC4)c3)n[nH]c12)N1C[C@H](F)[C@@H](F)C1 (single isomer, unassigned) [Example D7] | 36 nM | 2.3 nM | – | 80 nM
C[C@H](O)CN[C@@H](C)c1nc(C(F)(F)F)cc2c(-c3cccc([C@H](c4nncn4C)C4CCC4)c3)n[nH]c12 (single isomer, unassigned) [Example D19] | 17.2 nM | 1.6 nM | 24 nM | 9 nM
CC1CN(Cc2nc(C(F)(F)F)cc3c(-c4cccc(C5(Cc6nncn6C)COC5)c4)n[nH]c23)CCC1(F)F (single isomer, unassigned) [Example C31, 7-{[(3ξ)-4,4-difluoro-3-methylpiperidin-1-yl]methyl}-3-(3-{3-[(4-methyl-4H-1,2,4-triazol-3-yl)methyl]oxetan-3-yl}phenyl)-5-(trifluoromethyl)-1H-pyrazolo[3,4-c]pyridine] | 133 nM | 4.7 nM | – | 166 nM
CC(C)NC(C)c1nc(C(F)(F)F)cc2c(-c3cccc([C@H](c4nncn4C)C4CCC4)c3)n[nH]c12 (single isomer, unassigned) [Example C34] | 172 nM | 5.2 nM | 86 nM | 67 nM
C[C@@H](N[C@H]1CCC(F)(F)C1)c1nc(C(F)(F)F)cc2c(-c3cccc(C4(Cc5nncn5C)COC4)c3)n[nH]c12 (single isomer, unassigned) [Example C13] | 11.9 nM | 2.8 nM | – | 16 nM
C[C@H](c1nc(C(F)(F)F)cc2c(-c3cccc(C4(Cc5nncn5C)COC4)c3)n[nH]c12)N1CCO[C@@H](C)C1 (single isomer, unassigned) [Example D12] | 46 nM | 6.6 nM | – | 612 nM
C[C@@H](c1nc(C(F)(F)F)cc2c(-c3cccc(C4(Cc5nncn5C)COC4)c3)n[nH]c12)N1CCC(F)(F)C1 (single isomer, unassigned) [Example D5] | 209 nM | 21.9 nM | – | 650 nM
